Results published in EPA's ToxRefDB 2.

Tests used:
rabbit [1] = conditions: Prenatal developmental toxicity study, himalayan, Oral, Gavage/Intubation, dose end: 18 GD
rat [2] = conditions: Sub-acute repeat dose toxicity, sprague dawley, Oral, Gavage/Intubation, dose end: 4 week, group: systemic
rabbit [3] = conditions: Prenatal developmental toxicity study, himalayan, Oral, Gavage/Intubation, dose end: 18 GD; remark: listed apart in the source
rat [4] = conditions: Sub-acute repeat dose toxicity; long evans; Oral; Gavage/Intubation; dose end: 4 week; group: systemic; systemic / in life observation / body weight / body weight gain + systemic / in life observation / clinical signs / drooping eyelids (ptosis…
rat [5] = conditions: Fertility (Segment I), wistar, Oral, Gavage/Intubation, dose end: 7 GD
rabbit [6] = conditions: Prenatal developmental toxicity study, himalayan, Injection, Intravenous, dose end: 18 GD, group: maternal
mouse = conditions: Combined chronic toxicity/carcinogenicity; other; Oral; Feed; dose end: 365 day; group: systemic; systemic / pathology gross / full gross necropsy / lymphoma malignant
rat [7] = conditions: Combined chronic toxicity/carcinogenicity; fischer; Oral; Feed; dose end: 365 day; group: systemic; systemic / in life observation / body weight / body weight
[8] = group: developmental, developmental / developmental malformation / bone / incomplete ossification + developmental / developmental malformation / bone / short + …
[9] = group: maternal, systemic / in life observation / clinical signs / motor activity + systemic / in life observation / mortality / mortality
[10] = systemic / clinical chemistry / adrenocorticotropic hormone (acth) / adrenocorticotropic hormone (acth)
[11] = systemic / clinical chemistry / adrenocorticotropic hormone (acth) / adrenocorticotropic hormone (acth) + systemic / clinical chemistry / …
[12] = group: developmental, developmental / developmental malformation / paw / digit / [other]
[13] = group: maternal, systemic / in life observation / body weight / body weight gain + systemic / in life observation / clinical signs / [other] + systemic / in …
[14] = group: maternal, systemic / in life observation / clinical signs / ataxia + systemic / in life observation / clinical signs / motor activity + systemic / in …
[15] = group: maternal, reproductive / reproductive performance / implantations / implantations + reproductive / reproductive performance / preimplantation loss / …
[16] = group: parental, systemic / in life observation / clinical signs / salivation + systemic / in life observation / clinical signs / tremors + systemic / in …
[17] = systemic / in life observation / body weight / body weight gain + systemic / in life observation / food consumption / food consumption + …

## COc1cccc([C@H](O)C2CCN(CCc3ccc(F)cc3)CC2)c1OC [Volinanserin]
Rabbit [1]; [8]
  LEL: 40 mg/kg/day
  LOAEL: > 40 mg/kg/day
  NEL: 12.5 mg/kg/day
  NOAEL: ≥ 40 mg/kg/day
Rabbit [1]; [9]
  LEL: 40 mg/kg/day
  LOAEL: > 40 mg/kg/day
  NEL: 12.5 mg/kg/day
  NOAEL: ≥ 40 mg/kg/day
Rat [2]; [10]
  LEL: 12.5 mg/kg/day
  NEL: < 12.5 mg/kg/day
Rat [2]; [11]
  LOAEL: > 75 mg/kg/day
  NOAEL: ≥ 75 mg/kg/day
Rabbit [3]; [12]
  LEL: 50 mg/kg/day
  LOAEL: > 100 mg/kg/day
  NEL: < 50 mg/kg/day
  NOAEL: ≥ 100 mg/kg/day
Rabbit [3]; [13]
  LOAEL: > 100 mg/kg/day
  NOAEL: ≥ 100 mg/kg/day
Rabbit [3]; [14]
  LEL: 50 mg/kg/day
  NEL: < 50 mg/kg/day
Rat [4]
  LEL: 150 mg/kg/day
  LOAEL: > 150 mg/kg/day
  NEL: 50 mg/kg/day
  NOAEL: ≥ 150 mg/kg/day
Rat [5]; [15]
  LEL: 200 mg/kg/day
  LOAEL: > 200 mg/kg/day
  NOAEL: ≥ 200 mg/kg/day
Rat [5]; [16]
  NEL: 20 mg/kg/day
  NOAEL: 20 mg/kg/day
Rabbit [6]; systemic / in life observation / body weight / body weight gain + systemic / in life observation / food consumption / food consumption
  LEL: 3 mg/kg/day
Rabbit [6]; [17]
  LOAEL: > 4.5 mg/kg/day
  NEL: 0.2 mg/kg/day
  NOAEL: ≥ 4.5 mg/kg/day

## Cc1ccc(NC(N)=O)cc1 [p-Tolylurea]
mouse
  LEL: 300 mg/kg/day
  LOAEL: > 300 mg/kg/day
  NEL: < 300 mg/kg/day
  NOAEL: ≥ 300 mg/kg/day
Rat [7]
  LEL: 100 mg/kg/day
  LOAEL: > 100 mg/kg/day
  NEL: < 100 mg/kg/day
  NOAEL: ≥ 100 mg/kg/day
